Assay results published in ChEMBL document CHEMBL1201862, “PubChem BioAssay data set” (2004).
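Assay format: 96-well plates, 48-hour exposure. GI50 marks 50% less growth.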 Calls of active or inactive are those of the source. No stated cut-off is given here; in the data, active = GI50 up to about 1.1 µM and inactive = higher. *1 amine or outer side, *2 acyl side, *3 side chain or, on linkers, in order; H or OH if unused. Where a SMILES comes first, the peptide text is derived from it. Bridges are numbered along the chain shown (N, C = ends). [ ]: non-standard residue; d: D form. The star is where a group is joined. X56 = CC(C)C(C)C(C(=O)[*:2])N(C)[*:1]; Picolinoyl(3-OH) = O=C(c1ncccc1O)*; NMePhg = CN[CH](C(=O)O)c1ccccc1; Hyp = O=C(O)[CH]1C[CH](O)CN1; Sar = CNCC(=O)O

Key:
Assay in all cases: DTP human tumour cell line panel, 48 h
[1] = tested on: RXF 631
[2] = tested on: XF498
[3] = tested on: M19-MEL
[4] = tested on: LXFL 529
[5] = tested on: DMS-273
[6] = tested on: BT-549
[7] = tested on: Hs-578T
[8] = tested on: DU-145
[9] = tested on: MDA-N

Row | Compound | GI50 [1] | GI50 [2] | GI50 [3] | GI50 [4] | GI50 [5] | GI50 [6] | GI50 [7] | GI50 [8] | GI50 [9]
1 | O=C1c2ccccc2C(=O)C1(O)c1c[nH]c2ccccc12 | > 100 µM (inactive) | > 100 µM (inactive) | > 100 µM (inactive) | > 100 µM (inactive) | – | – | – | – | –
2 | C=CCCC(=O)CC(=O)OCc1ccccc1 | > 100 µM (inactive) | > 100 µM (inactive) | > 100 µM (inactive) | > 100 µM (inactive) | > 100 µM (inactive) | – | – | – | –
3 | N#CC(Nc1cccc(C(F)(F)F)c1)c1ccccc1C(F)(F)F (configuration not stated) | – | 3.94 µM (inactive) | 7.23 µM (inactive) | 6.17 µM (inactive) | 8.04 µM (inactive) | – | – | – | –
4 | CSCC[C@@H]1C(=O)N(C)[C@H](C(C)(C)C)N1C(=O)c1ccccc1 | – | > 100 µM (inactive) | > 100 µM (inactive) | – | > 100 µM (inactive) | – | – | – | –
5 | NC1=NN(c2ccccc2)C(=O)C1C(=O)C(=O)Nc1ccc(Cl)cc1 (configuration not stated) | > 100 µM (inactive) | – | > 100 µM (inactive) | > 100 µM (inactive) | > 100 µM (inactive) | – | – | – | –
6 | CC(C)c1cccc(C(C)C)c1NC(=O)C(=O)C1CCC2=C(Sc3ccccc3N2)C1=O (configuration not stated) | 4.18 µM (inactive) | – | > 100 µM (inactive) | 44.2 µM (inactive) | 40.5 µM (inactive) | – | – | – | –
7 | N#CC1=C(N)n2c(s/c(=C\c3ccc(Cl)cc3)c2=O)=C(c2nc3ccccc3[nH]2)C1c1ccc(Cl)cc1 (configuration not stated) | – | 1.63 µM (inactive) | 3.04 µM (inactive) | 1.9 µM (inactive) | 2.12 µM (inactive) | – | – | – | –
8 | CCCSCC(P(=O)(O)O)P(=O)(O)O.NC1CCCCC1 | – | > 100 µM (inactive) | > 100 µM (inactive) | – | > 100 µM (inactive) | – | – | – | –
9 | CC(C)CC1NC(=O)C(NC(=O)c2ncccc2O)C(C)OC(=O)C(c2ccccc2)N(C)C(=O)C(C)NC(=O)C(C(C)C(C)C)N(C)C(=O)CN(C)C(=O)C2CC(O)CN2C1=O (configuration not stated) ({Picolinoyl(3-OH)}-TL[Hyp][Sar][X56]A[NMePhg]; ester 1-C; configuration not given here) | – | 35.6 µM (inactive) | 68.2 µM (inactive) | – | 34.8 µM (inactive) | – | – | – | –
10 | COc1cc2c(cc1OC)C(=O)Cc1ccc3c(c1CNCC2)OCO3 | – | > 100 µM (inactive) | > 100 µM (inactive) | > 100 µM (inactive) | – | – | – | – | –
11 | CC1=C[C@]2(O)C(=O)[C@H](C)C[C@H]3[C@@H](CC[C@@](C)(O)/C=C\2C1=O)C3(C)C | 31.1 µM (inactive) | 16.3 µM (inactive) | 18.5 µM (inactive) | 16.8 µM (inactive) | 22.4 µM (inactive) | – | – | – | –
12 | COc1cccc2c1C(=O)c1c(O)c3c(c(O)c1C2=O)C[C@@](O)(C(C)=O)CC3S(=O)(=O)O (some centres not stated) | > 100 µM (inactive) | > 100 µM (inactive) | > 100 µM (inactive) | > 100 µM (inactive) | > 100 µM (inactive) | – | – | – | –
13 | CC(=O)O[C@]1(C(C)=O)CC[C@H]2[C@@H]3C[C@H](C)C4=CC(=O)C=C[C@]4(C)[C@@]3(F)[C@@H](O)C[C@@]21C [FLUOROMETHOLONE ACETATE] | – | 38.3 µM (inactive) | > 100 µM (inactive) | – | 41.7 µM (inactive) | – | – | – | –
14 | NCCSc1nc(N)c2ncn(C3OC(CO)C(O)C3O)c2n1 (configuration not stated) | – | > 100 µM (inactive) | > 100 µM (inactive) | – | > 100 µM (inactive) | – | – | – | –
15 | CCC1CN2CCC3(c4ccccc4)CC(C(=O)OC)=CC1C23 (configuration not stated) | 15 µM (inactive) | 0.183 µM (active) | 17.1 µM (inactive) | 15.4 µM (inactive) | – | – | – | – | –
16 | CC1=C(C(=O)Nc2cccc(Cl)c2)C(c2ccccc2F)C(C(=O)Nc2cccc(Cl)c2)=C(C)N1 | 10.1 µM (inactive) | – | 11.6 µM (inactive) | 8.11 µM (inactive) | 11.9 µM (inactive) | – | – | – | –
17 | CCOC(=O)C(=O)Nc1cc(Cl)ccc1Cl | – | > 100 µM (inactive) | > 100 µM (inactive) | > 100 µM (inactive) | > 100 µM (inactive) | – | – | – | –
18 | CCOC(=O)C(CC(C)C)NC(=O)C(Cc1ccc(N(CCCl)CCCl)cc1)NC(C)=O (configuration not stated) | – | 0.406 µM (active) | 3.84 µM (inactive) | 12.4 µM (inactive) | 4.47 µM (inactive) | 6.67 µM (inactive) | 5.12 µM (inactive) | 5.93 µM (inactive) | 2.67 µM (inactive)
19 | COC(=O)c1nc(-c2ccc3c(n2)C(=O)C(=N)C(OC)=C3O)c(N)c(-c2ccc(OC)c(OC)c2O)c1C | – | 1.18 µM (inactive) | 0.254 µM (active) | – | 0.303 µM (active) | – | – | – | –
20 | CCOC(=O)c1ccc(O)cc1 [ETHYLPARABEN] | > 100 µM (inactive) | > 100 µM (inactive) | > 100 µM (inactive) | – | 55.5 µM (inactive) | – | – | – | –
21 | OCC12C=CC(C1)c1ccccc12 (configuration not stated) | > 100 µM (inactive) | – | > 100 µM (inactive) | > 100 µM (inactive) | > 100 µM (inactive) | – | – | – | –
22 | CCC1=C(C(C)=O)[C@@H]2CCCCC[C@@H](C(=O)OC)C2C1=O (some centres not stated) | – | > 100 µM (inactive) | > 100 µM (inactive) | > 100 µM (inactive) | > 100 µM (inactive) | – | – | – | –
23 | CC(C)c1cccc2sc(NC(=O)C(=O)C(C#N)c3cccc4ccccc34)nc12 (configuration not stated) | > 100 µM (inactive) | – | 91.4 µM (inactive) | 73.1 µM (inactive) | 90.4 µM (inactive) | – | – | – | –
24 | CC(C)[C@@H](C)CC[C@@H](C)C1CC=C2[C@@H]3CCC4C[C@@H](O[Si](C)(C)C(C)(C)C)CC[C@]4(C)C3CC[C@@]21C (some centres not stated) | > 100 µM (inactive) | – | > 100 µM (inactive) | > 100 µM (inactive) | > 100 µM (inactive) | – | – | – | –
25 | COc1ccc(-c2ccc(CC(=O)O)cc2)cc1OC | – | 20.7 µM (inactive) | > 100 µM (inactive) | > 100 µM (inactive) | – | – | – | – | –
26 | Cc1ccc(N2C(=O)C(=CN)C(=O)N(c3ccc(C)cc3)C2=O)cc1 | > 100 µM (inactive) | – | > 100 µM (inactive) | > 100 µM (inactive) | > 100 µM (inactive) | – | – | – | –
27 | N#CC1(C#N)C(C#N)(C#N)C12CCCCCC2 | – | – | 20.5 µM (inactive) | 15.2 µM (inactive) | 22.4 µM (inactive) | – | – | – | –
28 | CC1=CCC2(C#N)CCC1C2O (configuration not stated) | – | > 100 µM (inactive) | > 100 µM (inactive) | > 100 µM (inactive) | 19.7 µM (inactive) | – | – | – | –
29 | Cc1ccc(S(=O)(=O)C2=c3ncccc3=C3C(=O)c4ccccc4C(=O)C32)cc1 (configuration not stated) | – | – | < 0.01 µM (active) | 83.8 µM (inactive) | 26.5 µM (inactive) | 39.8 µM (inactive) | 22.6 µM (inactive) | > 100 µM (inactive) | > 100 µM (inactive)
